Legend:
Assay type in all cases: in vivo
Setaria faberi (SETFA) = assay: Glasshouse herbicidal test, pre- and post-emergence, Setaria faberi; conditions: 250 g/h, evaluated after 13 days, five point scale; for percentage damage caused to the plant, SETFA POST: post-emergence; for percentage damage caused to the plant, SETFA PRE: pre-emergence
Experimental: (§1) Seeds of a variety of test species are sown in standard soil in pots (Lolium perenne (LOLPE), Setaria faberi (SETFA), Alopecurus myosuroides (ALOMY), Echinochloa crus-galli (ECHCG), Avena fatua (AVEFA)). After cultivation for one day (pre-emergence) or after 8 days cultivation (post-emergence) under controlled conditions in a glasshouse (at 24/16° C., day/night; 14 hours light; 65% humidity), the plants are sprayed with an aqueous spray solution derived from the formulation of the technical active ingredient in acetone/water (50:50) solution containing 0.5% Tween 20 (polyoxyethelyene sorbitan monolaurate, CAS RN 9005-64-5). Compounds are applied at […]. The test plants are then grown in a glasshouse under controlled conditions in a glasshouse (at 24/16° C., day/night; 14 hours light; 65% humidity) and watered twice daily. After 13 days for pre and post-emergence, the test is evaluated for the percentage damage caused to the plant. The biological activities are shown in the following table on a five point scale (5=80-100%; 4=60-79%; 3=40-59%; 2=20-39%; 1=0-19%).

Avena fatua (AVEFA) = assay: Glasshouse herbicidal test, pre- and post-emergence, Avena fatua; conditions: 250 g/h, evaluated after 13 days, five point scale; for percentage damage caused to the plant, AVEFA POST: post-emergence; for percentage damage caused to the plant, AVEFA PRE: pre-emergence
Experimental: as §1

[1] = system: Echinochloa crus-galli (ECHCG); assay: Glasshouse herbicidal test, pre- and post-emergence, Echinochloa crus-galli; conditions: 250 g/h, evaluated after 13 days, five point scale; for percentage damage caused to the plant, ECHCG POST: post-emergence; for percentage damage caused to the plant, ECHCG PRE: pre-emergence
Experimental: as §1

Lolium perenne (LOLPE) = assay: Glasshouse herbicidal test, pre- and post-emergence, Lolium perenne; conditions: 250 g/h, evaluated after 13 days, five point scale; for percentage damage caused to the plant, LOLPE POST: post-emergence; for percentage damage caused to the plant, LOLPE PRE: pre-emergence
Experimental: as §1

[2] = system: Alopecurus myosuroides (ALOMY); assay: Glasshouse herbicidal test, pre- and post-emergence, Alopecurus myosuroides; conditions: 250 g/h, evaluated after 13 days, five point scale; for percentage damage caused to the plant, ALOMY POST: post-emergence; for percentage damage caused to the plant, ALOMY PRE: pre-emergence
Experimental: as §1

CC#Cc1cc(C)c(C2C(=O)CC3(CCN(C(=O)C(F)(F)C(F)F)CC3)CC2=O)c(C)c1 [Compound A29]
5 (5=80-100%): percentage damage caused to the plant, SETFA POST (Setaria faberi (SETFA)) | percentage damage caused to the plant, SETFA PRE (Setaria faberi (SETFA)) | percentage damage caused to the plant, AVEFA POST (Avena fatua (AVEFA)) | percentage damage caused to the plant, AVEFA PRE (Avena fatua (AVEFA)) | percentage damage caused to the plant, ECHCG POST [1] | percentage damage caused to the plant, ECHCG PRE [1] | percentage damage caused to the plant, LOLPE POST (Lolium perenne (LOLPE)) | percentage damage caused to the plant, LOLPE PRE (Lolium perenne (LOLPE)) | percentage damage caused to the plant, ALOMY POST [2] | percentage damage caused to the plant, ALOMY PRE [2]

CC#Cc1cc(C)c(C2=C(OC(=O)C(C)(C)C)CC3(CCN(OC)CC3)CC2=O)c(C)c1 [Compound P1]
5 (5=80-100%): percentage damage caused to the plant, SETFA POST (Setaria faberi (SETFA)) | percentage damage caused to the plant, SETFA PRE (Setaria faberi (SETFA)) | percentage damage caused to the plant, AVEFA POST (Avena fatua (AVEFA)) | percentage damage caused to the plant, AVEFA PRE (Avena fatua (AVEFA)) | percentage damage caused to the plant, ECHCG POST [1] | percentage damage caused to the plant, ECHCG PRE [1] | percentage damage caused to the plant, LOLPE POST (Lolium perenne (LOLPE)) | percentage damage caused to the plant, LOLPE PRE (Lolium perenne (LOLPE)) | percentage damage caused to the plant, ALOMY POST [2] | percentage damage caused to the plant, ALOMY PRE [2]

CC#Cc1cc(C)c(C2=C(OC(C)=O)CC3(CCN(OC)CC3)CC2=O)c(C)c1 [Compound P2]
5 (5=80-100%): percentage damage caused to the plant, SETFA POST (Setaria faberi (SETFA)) | percentage damage caused to the plant, SETFA PRE (Setaria faberi (SETFA)) | percentage damage caused to the plant, AVEFA POST (Avena fatua (AVEFA)) | percentage damage caused to the plant, AVEFA PRE (Avena fatua (AVEFA)) | percentage damage caused to the plant, ECHCG POST [1] | percentage damage caused to the plant, ECHCG PRE [1] | percentage damage caused to the plant, LOLPE POST (Lolium perenne (LOLPE)) | percentage damage caused to the plant, LOLPE PRE (Lolium perenne (LOLPE)) | percentage damage caused to the plant, ALOMY POST [2] | percentage damage caused to the plant, ALOMY PRE [2]

CC#Cc1cc(C)c(C2=C(OC(=O)OC)CC3(CCN(OC)CC3)CC2=O)c(C)c1 [Compound P3]
5 (5=80-100%): percentage damage caused to the plant, SETFA POST (Setaria faberi (SETFA)) | percentage damage caused to the plant, SETFA PRE (Setaria faberi (SETFA)) | percentage damage caused to the plant, AVEFA POST (Avena fatua (AVEFA)) | percentage damage caused to the plant, AVEFA PRE (Avena fatua (AVEFA)) | percentage damage caused to the plant, ECHCG POST [1] | percentage damage caused to the plant, ECHCG PRE [1] | percentage damage caused to the plant, LOLPE POST (Lolium perenne (LOLPE)) | percentage damage caused to the plant, LOLPE PRE (Lolium perenne (LOLPE)) | percentage damage caused to the plant, ALOMY POST [2] | percentage damage caused to the plant, ALOMY PRE [2]

CC#Cc1cc(C)c(C2=C(OC(C)=O)CC3(CCN(C(C)=O)CC3)CC2=O)c(C)c1 [Compound P4, [3-acetyl-9-(2,6-dimethyl-4-prop-1-ynyl-phenyl)-10-oxo-3-azaspiro[5.5]undec-8-en-8-yl] acetate]
5 (5=80-100%): percentage damage caused to the plant, SETFA PRE (Setaria faberi (SETFA)) | percentage damage caused to the plant, AVEFA POST (Avena fatua (AVEFA)) | percentage damage caused to the plant, AVEFA PRE (Avena fatua (AVEFA)) | percentage damage caused to the plant, ECHCG POST [1] | percentage damage caused to the plant, ECHCG PRE [1] | percentage damage caused to the plant, LOLPE POST (Lolium perenne (LOLPE)) | percentage damage caused to the plant, LOLPE PRE (Lolium perenne (LOLPE)) | percentage damage caused to the plant, ALOMY POST [2] | percentage damage caused to the plant, ALOMY PRE [2]

CC#Cc1cc(C)c(C2=C(OC(=O)OC)CC3(CCN(C(C)=O)CC3)CC2=O)c(C)c1 [Compound P5]
5 (5=80-100%): percentage damage caused to the plant, SETFA POST (Setaria faberi (SETFA)) | percentage damage caused to the plant, SETFA PRE (Setaria faberi (SETFA)) | percentage damage caused to the plant, AVEFA POST (Avena fatua (AVEFA)) | percentage damage caused to the plant, AVEFA PRE (Avena fatua (AVEFA)) | percentage damage caused to the plant, ECHCG POST [1] | percentage damage caused to the plant, ECHCG PRE [1] | percentage damage caused to the plant, LOLPE POST (Lolium perenne (LOLPE)) | percentage damage caused to the plant, LOLPE PRE (Lolium perenne (LOLPE)) | percentage damage caused to the plant, ALOMY POST [2] | percentage damage caused to the plant, ALOMY PRE [2]

CC#Cc1cc(C)c(C2=C(OC(=O)C(C)C)CC3(CCN(C(=O)C(C)C)CC3)CC2=O)c(C)c1 [Compound P7]
5 (5=80-100%): percentage damage caused to the plant, SETFA POST (Setaria faberi (SETFA)) | percentage damage caused to the plant, SETFA PRE (Setaria faberi (SETFA)) | percentage damage caused to the plant, AVEFA POST (Avena fatua (AVEFA)) | percentage damage caused to the plant, AVEFA PRE (Avena fatua (AVEFA)) | percentage damage caused to the plant, ECHCG POST [1] | percentage damage caused to the plant, ECHCG PRE [1] | percentage damage caused to the plant, LOLPE POST (Lolium perenne (LOLPE)) | percentage damage caused to the plant, LOLPE PRE (Lolium perenne (LOLPE)) | percentage damage caused to the plant, ALOMY POST [2] | percentage damage caused to the plant, ALOMY PRE [2]

— patent publication US11542235B2, “Herbicidal 3-azaspiro[5.5] undecane-8, 10-dione compounds” (SYNGENTA PARTICIPATIONS AG, priority 2018, dated 2023)
